These results are taken from US10785978B2, “Control and repellency of biting flies, house flies, ticks, ants, fleas, biting midges, cockroaches, spiders and stink bugs” (priority 2012, dated 2020).

Common to all, as to assay type: in vivo
For one data set, the system named is sand flies P. papatasi. Put plainly: Sand fly bite test on treated human skin with K&D module. The conditions noted are these: for percent biting, Treatment level 5%: 5% compound in isopropyl alcohol on human skin; for sand flies repelled: at 5%. The method, then: Control against sand flies was determined by the following protocol as generally described in J. Med. Entomol. 43 (6), 1248-1252 (2006). Volunteers wearing short pants were seated. Using a skin-marking template and a washable-ink marker, skin areas represented by 3- by 4-cm floor opening of six cells of a K&D module were outlined on the outer, top and inner thigh position of each leg of the volunteers. The six treated cell rectangles each represented a random block, and each volunteer had three blocks on each of two thighs. All treatments against the sand flies P. papatasi, were pipetted onto a 4- by 5-cm rectangular area (so the area of skin covered by a treatment exceeded the template marks by 0.5 cm in every direction) of the subjects' skin with 55 ul of isopropyl alcohol/treatment containing 10% or 5% compound/ul isopropyl alcohol. Treating a slightly larger area ensured that the areas beneath each K&D module contained only treated skin. Skin treated with isopropyl alcohol alone served as control. In all tests adjacent cells of the K&D module were supplied with ten sand flies. The sand fly charged K&D module was positioned over the treated skin areas and the trap doors of the K&D module above the areas were opened. After a five minute skin exposure the trap doors were closed. The number of sand fly bites was recorded for each cell. The percent biting is the percent compared to the biting for the control which was taken as 100%.

The next data set concerns house flies. Put plainly: House fly repellency on treated filter paper food trays in cages. The note with it: 5% in isopropyl alcohol; over 6 hours.
The next data set has as its system Brown Dog Ticks. Kind of data set: Second repellent assay against Brown Dog Ticks. The note with it: 15% in isopropyl alcohol. The method, then: Also, a second repellent assay was used to evaluate six test samples against Brown Dog Ticks. Five replicates of five ticks were given the opportunity to quest onto a vertical strip of untreated filter paper and then allowed to move upward toward a second vertical strip of filter paper treated with one of the six candidate repellents or DEET®. In the control situation, the second strip was treated with isopropanol. They were then observed for directional or behavioral changes caused in response to contact with the repellent. Ticks were recorded as either repelled or not repelled. Compounds were diluted in isopropyl alcohol. The percentages of ticks repelled are shown below in Table 6.

Data set [1] deals with Brown Dog Ticks, Rhipicephalus sanguineus. The note with it: in vivo. The source says: The following protocol was employed to test compounds of this invention for toxicity (mortality) against ticks. There were 5 replicates of 5 dog ticks for each treatment. […] Filter paper strips were laid on a sheet of aluminum foil and enough of each of the test sample was applied to thoroughly saturate the paper. The paper was then rolled and placed inside a glass shell vial as to line the sides of the vial. A small paper disc, also saturated with the test sample, was then placed at the bottom of the vial. Brown Dog Ticks, Rhipicephalus sanguineus, were then introduced into the vials which were covered with aluminum foil, the inside of which was painted with some of the test sample. The ticks remained in the vials, constantly exposed to the test samples, for the duration of the test. A small hole was poked through the foil for ventilation. Each control replicate was subjected to the same procedures outlined above, except that they were not treated. The controls were placed in the same area as the test replicates for the duration of the test. Mortality observations were made at 24 hours. Ticks were classified as alive (able to move normally), moribund (those classified as moribund will show some movement, but will not be able to crawl in a coordinated manner, or will be unable to right themselves if placed on their backs), or dead (no movement after physical stimuli). All dead ticks were confirmed by probing or agitation to make sure that they are unable to move; any that show movement visible to the naked eye were recorded as moribund. At 24 hours the tick mortality was 0% for the control, 100% for γ-dodecalactone, 100% for methyl apritone and 76% for methyl dihydrojasmonate.

The subject of the next data set is German cockroaches. Kind of data set: German cockroach repellency, choice of food stations in arena. The note with it: 50% in acetone; at 4 hours.
The test system of the next data set is Black Widow spiders. Kind of data set: Black Widow spider choice test in half-treated tube shelters. The conditions noted are these: 5% in isopropanol; location after 24 hours. As for the experimental part: Control against Black Widow spiders was determined using the following protocol. One test container containing two card stock tube shelters, one half treated with a test sample and the other half treated with isopropanol was prepared. A spider was introduced in the center of the tube. The spider was then given a choice to move to one end of the shelters. The following day, its location is recorded and compared to the results from a shelter containing untreated half-shelters.
On the day of the test one of the two shelters was sprayed with the test sample solution using a 2 oz pump spray bottle. Only the surfaces that the spider will most likely contact were treated. Therefore, only the inside of one of the shelter tubes, including the end disc (spiders will not be able to access the outside part of the shelter) were sprayed. The total amount of product was weighed and recorded. The treated surface was allowed to dry for a minimum of ½ hour, or until solvent could not be detected by smell. At this time the shelter tubes were assembled.
Card stock paper tube shelters were constructed from 2 half-letter sized sheets (5½″×8½″) of paper, rolled and taped together to form a short tube. One end of each was covered with a circle of card stock paper, while the other end was later taped to the open end of the other half sheet, forming one long tube. […] The solvent-treated half was labeled with a “C” on the inner and outer walls with a pencil or a pen with solvent resistant ink. Prior to forming the final tube shelter, a semi-circular hole was cut into one of the margins of each sheet such that, once the two tubes are taped together, the holes correspond to the top and at the junction of the tubes for introduction of the spiders.
Twenty-five arenas were prepared in this manner for each test sample. There were five replicates of five spiders. Twenty-five additional control arenas were also prepared. They were prepared the same way, except that areas to be sprayed were sprayed with isopropanol only.
Replicates of five spiders were selected for each test formulation and for the control. The specimens were visually examined for overall physical condition. […] The spiders were transferred directly into the holding vials using flexible forceps or with a little coaxing with an artist brush. Because of their cannibalistic tendencies, each vial contained only one spider. There they were held until the time for testing.
At the test start the spiders were placed directly in the middle, through the opening at the top of the shelter tube, and the opening covered, with only one spider per arena. […] They were left alone for 24 hours, after which time their location within the arena was recorded. Spiders present inside the shelter treated with the test repellent were considered tolerant.

Setting [2] is: five minute exposure, percent of control biting taken as 100%.

With `CCCCCC1C(=O)CCC1CC(=O)OC` (centres unmarked) [Methyl dihydrojasmonate, methyl dihydrojasmonate], in the data set on sand flies P. papatasi (setting [2]), the “percent biting, Treatment level 5%” value stood at 0%. Moreover, the sand flies repelled with sand flies P. papatasi was 100%. Further, the “Overall % Repellency” value in the data set with house flies was found to be 52%. Further, the “Mean % repelled” value in the data set with Brown Dog Ticks was 100%. In data set [1], the “24 hr mortality (%)” value was determined as 76% and the “tick mortality at 24 hours” value was found to be 76%. Moreover, the “% Repellency 4 hr” value in the data set with German cockroaches amounted to 72.2%. Also, the “% Repellency” value in the data set with Black Widow spiders was 87.5%.

As to `CCC(C)=CCCC(C)=CCC1CCCC1=O` (centres unmarked) [Methyl apritone, methyl apritone], in the data set on sand flies P. papatasi (setting [2]), the “percent biting, Treatment level 5%” value turned out to be 9.9%^. Moreover, in the data set with sand flies P. papatasi (10% compound in isopropyl alcohol on human skin, five minute exposure, percent of control biting taken as 100%), the “percent biting, Treatment level-10%” value turned out to be 0%. The molecule further returned a sand flies repelled in the data set on sand flies P. papatasi of 90.1%. Besides, the “Overall % Repellency” value with house flies is reported as 45%. Also, the “Mean % repelled” value with Brown Dog Ticks is reported as 100%. In data set [1], the “24 hr mortality (%)” value is 100% and the “tick mortality at 24 hours” value is 100%. Also, the “% Repellency 4 hr” value in the data set with German cockroaches came out at 100%. Further, in the data set on Black Widow spiders, the “% Repellency” value is recorded as 37.5%.
